Measured values taken from US10393751B2, “Specific peptide binders to proteins identified via systematic discovery, maturation and extension process” (Roche […], Inc., priority 2015, dated 2019).

Target: streptavidin (Streptomyces avidinii, UniProt P22629)
Assay: Surface Plasmon Resonance (Biacore X100) of synthesized peptides on immobilized streptavidin
Assay type: binding
Conditions: for KD (equilibrium dissociation constant, kd/ka) / Kd / kon / koff: SPR; for kon: read-out: Ka (association rate constant); for koff: read-out: Kd (dissociation rate constant)
Description: A selection of streptavidin peptide binders listed in Table 15 were synthesized using standard column-based synthesis techniques by UW Biotechnology center (Madison, Wis.) or by Peptide2.0 (Chantilly, Va.) at 98-99% purity. Strep-tag II peptide NH2-SAWSHPQFEK-COOH was purchased from IBA GmbH (Goettingen, Germany). Synthesized peptides were then characterized by Surface Plasmon Resonance (SPR) to identify binding characteristics including the association rate constant (ks), dissociation rate constant (kd), and equilibrium dissociation rate constant (kd/ka=KD). In one aspect, SPR experiments were performed by using Biacore X100 instrument (GE Healthcare). Preliminarily, 60 μl of 100 μg/ml streptavidin in 10 mM Na-acetate, pH5.0 was immobilized to flow cell 2 (Fc2) of a sensor chip CM5 (GE Healthcare) using Amine Coupling Kit (GE Healthcare) at 20° C. for 6 min. Peptide stock solutions were prepared at 5 or 10 mM concentration in water and diluted in HBS-EP+ (GE Healthcare) buffer before SPR experiments. Peptide binding was performed in a multiple kinetics mode using HBS-EP+ as a running buffer and 0.2 M NaCl, 10 mM NaOH or 10 mM HCl-glycine, […] as regeneration buffer. Binding kinetics parameters were calculated with Biacore X100 software.

[1] = streptavidin immobilized on CM5 chip, HBS-EP+ running buffer
[2] = KD (equilibrium dissociation constant, kd/ka), streptavidin immobilized on CM5 chip, HBS-EP+ running buffer
[3] = KD of peptide-streptavidin complex, restated in text from Table 15

streptavidin, sequence (P22629 25-183, species assumed): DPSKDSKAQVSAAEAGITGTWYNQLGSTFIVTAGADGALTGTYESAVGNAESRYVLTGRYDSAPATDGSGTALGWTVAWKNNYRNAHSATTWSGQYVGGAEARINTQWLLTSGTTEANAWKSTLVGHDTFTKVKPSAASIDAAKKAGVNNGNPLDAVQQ

Substance: GNSFDDWLASKG [NH2-GNSFDDWLASKG-amide]
- KD (equilibrium dissociation constant, kd/ka) [1]: Irreversible
- binding as compared with the parent peptide NSFDDWLAKGG (result in words): irreversible binding

Substance: H-ADYLAEYHGG-OH [NH2-ADYLAEYHGG-COOH]
- Kd [2]: 96 ± 5 µM
- Kd [3]: ~96 µM

Substance: H-AFDYLAQYHGG-NH2 [NH2-AFDYLAQYHGG-amide]
- kon [1]: 23300 M⁻¹ s⁻¹
- koff [1]: 0.0354 s⁻¹

Substance: H-AFPDYLAEYHGG-NH2 [NH2-AFPDYLAEYHGG-amide]
- KD (equilibrium dissociation constant, kd/ka) [1]: 0.043 µM
- kon [1]: 30100 M⁻¹ s⁻¹
- koff [1]: 0.00128 s⁻¹
- KD rank among the streptavidin peptide binders in Table 15 (result in words): lowest KD

Substance: H-DPAPAWAHGG-OH [NH2-DPAPAWAHGG-COOH]
- Kd [2]: > 500 µM

Substance: H-EWVHPQFEQKAK-NH2 [NH2-EWVHPQFEQKAK-amide]
- KD as compared with the Strep-Tag II peptide (SEQ ID NO:233) (result in words): decreased KD

Substance: H-RDPAPAWAHGGG-NH2 [NH2-RDPAPAWAHGGG-amide]
- Kd [3]: ~4.66 µM
- KD (equilibrium dissociation constant, kd/ka) [1]: 4.66 µM
- kon [1]: 14900 M⁻¹ s⁻¹
- change in KD as compared with the parent peptide (parent peptide DPAPAWAHGG (SEQ ID NO:242)): ≥ 100 fold

Substance: H-WTHPQFEQK-OH [NH2-WTHPQFEQK-COOH]
- KD as compared with the Strep-Tag II peptide (SEQ ID NO:233) (result in words): decreased KD

Substance: H-WTHPQFEQPKA-NH2 [NH2-WTHPQFEQPKA-amide]
- KD as compared with the Strep-Tag II peptide (SEQ ID NO:233) (result in words): decreased KD
